Marks after values point to notes of the source that are not given here. One block for each molecule: values may come before it.
Columns and labels:
[1] = biological target: T1, PAR2 (Homo sapiens, UniProt P55085); experiment: Inhibition of trypsin-induced calcium flow (PAR2 activation) in HaCaT keratinocytes, Fluo-4/AM fluorescence; format: cell-based; conditions: HaCaT cells, 10 nM trypsin stimulation; for inhibition at 3 µM / inhibition at 10 µM / inhibition at 30 µM / inhibition at 100 µM: 30 min incubation, read-out: Anti-PAR2 activity (percentage of inhibition); for Inhibition of PAR2 activation (result in words): 3-100 μM
T1 construct: HaCaT cell line keratinocyte models were used; endogenous in cells; host or cells: HaCaT keratinocytes
T1 sequence (P55085 26-397): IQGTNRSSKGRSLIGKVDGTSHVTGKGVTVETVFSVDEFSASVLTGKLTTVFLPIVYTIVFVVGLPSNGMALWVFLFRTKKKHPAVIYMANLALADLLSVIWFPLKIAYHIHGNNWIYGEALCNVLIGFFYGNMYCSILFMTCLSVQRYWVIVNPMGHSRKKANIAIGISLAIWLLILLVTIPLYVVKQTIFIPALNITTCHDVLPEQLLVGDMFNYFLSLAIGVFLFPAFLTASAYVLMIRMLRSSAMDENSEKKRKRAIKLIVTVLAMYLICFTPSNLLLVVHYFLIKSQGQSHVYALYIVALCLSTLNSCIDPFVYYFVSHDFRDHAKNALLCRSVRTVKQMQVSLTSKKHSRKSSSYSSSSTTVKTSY
Protocol: HaCaT cell line keratinocyte models were used. L-serine and L-asparagine were purchased from EVONIK, L-arginine was purchased from AMINO and L-valine was purchased from AJINOMOTO.
A fluorescent probe (Fluo-4/AM at a concentration of 2 μM) is incorporated for 30 minutes in cells inoculated in 96-well plates and the active agent to be tested is incubated for 30 minutes. Only the deesterified form of the probe bound to calcium ions is excitable under 485 nm fluorescence and emits at 535 nm. The incubation buffer used is HBSS buffer supplemented with HEPES (20 mM) and with water-soluble probenecid (2.5 mM).
The cells were stimulated with 10 nM trypsin.
The reference molecule used is a STI molecule (soybean trypsin inhibitor) at a concentration of 1 μM.
L-serine and L-asparagine, solubilized at 50 mg/ml in distilled water (475.8 mM for L-serine and 378.4 mM for L-asparagine) were evaluated at concentrations of 3 μM, 10 μM, 30 μM and 100 μM.
L-arginine was solubilized at 100 mM in distilled water.
L-valine was solubilized at 200 mM in distilled water.
Calcium flow, which represents PAR2 activation, is measured by fluorescence, well by well in real time according to kinetics before and after the injection of trypsin. The percentage of inhibition of PAR2 activation corresponds to the percentage of inhibition of calcium flow.

[2] = tested on: IL-8 secretion; experiment: Inhibition of IL-8 secretion stimulated by trypsin in HaCaT keratinocytes (sandwich ELISA); format: cell-based; conditions: Homo sapiens, 10 nM trypsin 24 h, n=2 experiments
Protocol: The test performed permitted to evaluate the anti-inflammatory activity of L-serine in terms of IL-8 secretion, stimulated by trypsin, on human keratinocytes from a cell line (HaCaT). Principle of the IL-8 Assay: Sandwich ELISA for Quantification of IL-8 Secreted in Culture Supernatants. IL-8 is captured by a monoclonal antibody bound to microplate wells. A second anti-IL-8 antibody is added. This antibody is biotinylated, which enabled the binding of streptavidin coupled with peroxidase activity. Adding the peroxidase substrate makes it possible to quantify the IL-8 concentration in each well by measuring absorbance at 450 nm. The HaCaT human keratinocyte cell line was used. A 96-well microplate for cell culture and a plate reader with injectors, Mithras LB940TM (Berthold Technologies®), were used. 10 nM trypsin was used as stimulation agent. Reagents from the Human CXCL8/IL8 DuoSet R&D System kit (ref. DY208(E)) were used. L-serine, solubilized at 475.8 mM in distilled water, was evaluated at concentrations of 3 μM, 10 μM, 30 μM, 100 μM, 300 μM and 1 mM. L-serine is incubated for 1 hour at 37° C. (HBSS buffer). The stimulation agent (trypsin […]) is then added and incubated for 24 hours at 37° C. The culture supernatants are recovered, centrifuged at +4° C. and then stored at -20° C. The IL-8 concentrations of the samples are calculated from a standard curve of the following equation: OD=(Bmax*[IL-8])/(Kd+[IL-8]) Next, the percentages of inhibition of IL-8 secretion are calculated according to the following formula: […]

Molecule: NC(CO)C(=O)O [L-serine, 2-amino-3-hydroxypropanoic acid]
inhibition at 10 µM ([2]; 10 μM): 47% | inhibition at 30 µM ([2]; 30 μM): 50% | inhibition at 100 µM ([2]; 100 μM): 66% | inhibition at 1000 µM ([2]; 1 mM): 74% | inhibition at 3 µM [1]: 3% | inhibition at 10 µM [1]: 13% | inhibition at 30 µM [1]: 20% | inhibition at 100 µM [1]: 33% | Inhibition of PAR2 activation (result in words) [1]: inhibit PAR2 activation in a dose-dependent manner

Molecule: NC(=O)CC(N)C(=O)O [L-asparagine, asparagine-amino-succinic acid]
inhibition at 3 µM [1]: 23% | inhibition at 10 µM [1]: 23% | inhibition at 30 µM [1]: 22% | inhibition at 100 µM [1]: 31% | Inhibition of PAR2 activation (result in words) [1]: inhibit PAR2 activation, but not in a dose-dependent manner

Molecule: N=C(N)NCCC[C@H](N)C(=O)O [L-arginine, reference compound]
inhibition at 3 µM [1]: -17% | inhibition at 10 µM [1]: 12% | inhibition at 30 µM [1]: -11% | inhibition at 100 µM [1]: 1% | Inhibition of PAR2 activation (result in words) [1]: does not significantly inhibit PAR2 activation

Next, values leading:

inhibition at 3 µM [1]: 6% | inhibition at 10 µM [1]: 26% | inhibition at 30 µM [1]: 20% | inhibition at 100 µM [1]: 34% | Inhibition of PAR2 activation (result in words) [1]: inhibit PAR2 activation
Molecule: CC(C)[C@H](N)C(=O)O [L-valine]

Anti-PAR2 activity (percentage of inhibition) ([1]; reference at 1 μM): 106-109%***
B1: STI: reference molecule, STI molecule (soybean trypsin inhibitor) at a concentration of 1 μM (protein, UniProt P01070 25-205, looked up)
Trypsin inhibitor A: DFVLDNEGNPLENGGTYYILSDITAFGGIRAAPTGNERCPLTVVQSRNELDKGIGTIISSPYRIRFIAEGHPLSLKFDSFAVIMLCVGIPTEWSVVEDLPEGPAVKIGENKDAMDGWFRLERVSDDEFNNYKLVFCPQQAEDDKCGDIGISIDHDDGTRRLVVSKNKPLVVQFQKLDKESL

— US10052297B2, “L-serine to be used as a drug for preventing and/or treating an inflammatory response of the skin” (PIERRE FABRE DERMO-COSMETIQUE, priority 2009, dated 2018)
